From patent publication US20030212100A1, “Quinoline derivatives and medicinal use thereof” (priority 2000, published 2003)
Counter-ions that a name gives are not always drawn.

Tests used:
human PPARα receptor = biological target: T1, human PPARα receptor (Homo sapiens, UniProt Q07869); assay: Luciferase reporter assay of PPARα agonist activity (Gal4-PPARα chimera receptor in CV-1 cells); type: cell-based; conditions: luciferase activity with 10 μM Wy-14,643 taken as 100, read-out: PPARα agonist activity, relative activity; for Emax at 0.1 µM: CV-1, 0.1 μM compound; for Emax at 1 µM: CV-1, 1 μM compound; for Emax at 10 µM: CV-1, 10 μM compound
T1 construct: expressed in transfected cells; host or cells: CV-1 cells (pSG5-based expression vector)
T1 sequence (Q07869 167-468): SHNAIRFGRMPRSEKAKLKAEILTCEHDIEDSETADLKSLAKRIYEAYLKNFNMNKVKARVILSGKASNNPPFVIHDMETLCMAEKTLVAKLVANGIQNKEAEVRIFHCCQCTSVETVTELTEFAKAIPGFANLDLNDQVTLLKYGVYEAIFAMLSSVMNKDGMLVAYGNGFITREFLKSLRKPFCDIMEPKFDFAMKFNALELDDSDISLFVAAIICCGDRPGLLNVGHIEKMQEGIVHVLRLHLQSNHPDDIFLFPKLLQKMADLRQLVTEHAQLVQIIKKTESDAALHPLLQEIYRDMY
Method: (§1) Measurement of PPARα Agonist Activity and PPARγ Agonist Activity
(§2) 1. Materials for Assay of Luciferase Using Human PPARα and PPARγ Receptors
(§3) The entire procedure was carried out according to the fundamental methods of genetic engineering and the ordinary method in the yeast one-hybrid or two-hybrid system was applied.
(§4) PGL2-UAS5-TK-luc was prepared as a reporter plasmid carrying a response sequence of Gal4 protein as a basic transcription factor of yeast, an enhancer sequence with five repeat part of UAS, a luciferase gene (luc) under the control of timidine kinase (TK) promoter. Specifically, a DNA fragment encoding a TK promoter (−105/+51) on the downstream side of an enhancer sequence comprising two time repeat of UAS was amplified by PCR using pRL-TK carrying a TK promoter (Promega, Trade name: Catalogue No. E2241) as the template and the primers: […]
(§5) After the fragment was cleaved with XhoI-Hind III, pGL2-UAS2-TK-luc was obtained by inserting the resultant fragment into the XhoI-Hind III site located on the upstream side of a luciferase structural gene on pGL2-Basic vector (Promega, Trade name: Catalogue No. E1641).
(§6) After cleavage of a synthetic DNA as an enhancer sequence comprising three time repeat of Gal4 response sequence (SEQ ID NO: 3): 5′-ATTGGTAC([…])×3 AGATCTCGAC) using KpnI and BgIII was carried out, pGL2-UAS5-TK-luc was prepared by inserting the resulting fragment into the KpnI-BgIIIb site of pGL2-UAS2-TK-luc.
(§7) A vector for expression of a chimera receptor protein, in which a ligand binding region of an internuclear receptor human PPARα or PPARγ receptor was fused with the carboxyl terminal of a DNA binding region of yeast Ga14 protein, was prepared as follows:
(§8) The structural gene of pSG5 (STRATAGENE, Trade Name: Catalogue No. 216201) as the basic expression vector was changed for the chimera receptor except that the promoter-enhancer region was maintained as it was.
(§9) The DNA encoding the ligand binding region of the human PPARα or PPARγ receptor was fused on the downstream side of the DNA encoding the DNA binding region and the amino acid sequence from 1 to 147 positions of Ga14 protein so that their reading frames were fitted and the resulting fused DNA was inserted into pSG5 (trade name) on the down stream side of the promoter-enhancer region. In this step, the DNA sequence was arranged so that a signal for transfer into the nucleus (Ala Pro Lys Lys Lys Arg Lys Val Gly (SEQ ID: No: 4) derived from SV-40T antigen was located on the amino terminal of the ligand binding region of PPARα or PPARγ receptor in order to localize the chimera receptor in the nucleus.
(§10) Based on comparison of the human PPAR receptors described in R. Mukherjee et al., [see J. Steroid Biochem. Molec. Biol., Vol. 51, p157 (1994)] and M. E. Green et al., [see Gene Expression, Vol. 4, p281 (1995))], as the structural gene part used for the ligand binding region PPARα or PPARγ, the human PPARα ligand binding region: Ser167-Tyr468; and the PPARγ ligand binding region: Ser176-Tyr478 were used, which had the same sequences corresponding to Ser204-Tyr506 for human PPARγ1 receptor and human PPARγ2, respectively.
(§11) In order to monitor influence against the basic transcription, an expression vector was prepared which carried a DNA encoding only the DNA binding region and the amino acid sequence from 1 to 147 position of Ga14 protein defective in its PPAR ligand binding region and a signal for transfer into the nucleus of SV-40T-antigen.
(§12) 2. Assay of Luciferase Using Human PPARα or PPARγ Receptor
(§13) CV-1 cells used as a host cell were cultivated according to an ordinary method. Specifically, a fetal bovine serum (Intergent, Catalogue No. 1020-90) was added to a Dulbecco's modified Eagle's medium (DMEM) so that the final concentration became 10%. Further, penicillin G (50 U/ml) and streptomycin sulfate (50 μg/ml) were added. Cultivation was conducted in the resulting medium in a 5% carbon dioxide gas at 37° C. […]

human PPARγ receptor = biological target: T2, human PPARγ receptor (Homo sapiens, UniProt P37231); assay: Luciferase reporter assay of PPARγ agonist activity (Gal4-PPARγ chimera receptor in CV-1 cells); type: cell-based; conditions: luciferase activity with 1 μM Pioglitazone taken as 100, read-out: PPAR γ agonist activity, relative activity; for Emax at 0.1 µM: CV-1, 0.1 μM compound; for Emax at 1 µM: CV-1, 1 μM compound; for Emax at 10 µM: CV-1, 10 μM compound
T2 construct: corresponding to Ser204-Tyr506 for human PPARγ1 receptor and human PPARγ2; expressed in transfected cells; host or cells: CV-1 cells (pSG5-based expression vector)
T2 sequence (P37231 204-505 limits assumed): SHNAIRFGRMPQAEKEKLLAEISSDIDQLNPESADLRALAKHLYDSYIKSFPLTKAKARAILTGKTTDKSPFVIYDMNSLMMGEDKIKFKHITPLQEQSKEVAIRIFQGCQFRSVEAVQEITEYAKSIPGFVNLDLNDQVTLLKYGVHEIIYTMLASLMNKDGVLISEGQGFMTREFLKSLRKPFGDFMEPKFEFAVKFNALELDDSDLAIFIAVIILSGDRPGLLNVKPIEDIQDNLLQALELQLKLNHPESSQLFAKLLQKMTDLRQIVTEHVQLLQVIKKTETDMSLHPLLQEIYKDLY
Method: as §1, §2, §3, §4, §5, §6, §7, §8, §9, §10, §11, §12, §13

## CCOC(Cc1ccc(OCc2cnc3c(Cl)cccc3c2OC(C)C)cc1)C(=O)O (stereo not drawn) [Example 13 (76), 3-{[4-(8-chloro-4-isopropoxyquinoline-3-yl)methyloxy]phenyl}-2-ethoxypropanoic acid]
Human PPARα receptor
  Emax at 0.1 µM: 0.3%
  Emax at 1 µM: 0.9%
  Emax at 10 µM: 41.1%
Human PPARγ receptor
  Emax at 0.1 µM: 104%
  Emax at 1 µM: 140%
  Emax at 10 µM: 130%

## COc1ccc2ncc(COc3ccc(/C=C(\Sc4ccccc4)C(=O)O)cc3)c(OC(C)C)c2c1 [Example 18 (112), 3-{[4-(4-isopropoxy-6-methoxyquinoline-3-yl)methyloxy]phenyl}-2-phenylthiopropenoic acid]
Human PPARα receptor
  Emax at 0.1 µM: 0.3%
  Emax at 1 µM: 0.3%
  Emax at 10 µM: 0.3%
Human PPARγ receptor
  Emax at 0.1 µM: 0.5%
  Emax at 1 µM: 22.2%
  Emax at 10 µM: 89.9%

## CCOC(Cc1ccc(OCc2cccc3cccnc23)cc1)C(=O)O (stereo not drawn) [Example 16 (32), 2-ethoxy-3-{[4-(quinoline-8-yl)methyloxy]phenyl}propanoic acid]
Human PPARα receptor
  Emax at 0.1 µM: 0.3%
  Emax at 1 µM: 0.4%
  Emax at 10 µM: 45.2%
Human PPARγ receptor
  Emax at 0.1 µM: 1.6%
  Emax at 1 µM: 71.8%
  Emax at 10 µM: 127%

## CCOC(Cc1cccc(OCc2cnc3ccc(OC)cc3c2OC(C)C)c1)C(=O)O (stereo not drawn) [Example 20 (114), 2-ethoxy-3-{[3-(4-isopropoxy-6-methoxyquinoline-3-yl)methyloxy]phenyl}propanoic acid]
Human PPARγ receptor
  Emax at 0.1 µM: 9.3%
  Emax at 1 µM: 91%
  Emax at 10 µM: 110%

## CCOC(Cc1ccc(OCc2cc(OC)c3ccccc3n2)cc1)C(=O)O (stereo not drawn) [Example 11 (99), 2-ethoxy-3-{[4-(4-methoxyquinoline-2-yl)methyloxy]phenyl}propanoic acid]
Human PPARα receptor
  Emax at 0.1 µM: 25.2%
  Emax at 1 µM: 64.3%
  Emax at 10 µM: 68.6%
Human PPARγ receptor
  Emax at 0.1 µM: 75.2%
  Emax at 1 µM: 115%
  Emax at 10 µM: 106%

## CCOC(=O)C(Cc1ccc(OC)c(OCc2cnc3ccc(OC)cc3c2OC(C)C)c1)C(=O)OCC [Example 28 (129), diethyl{[3-(4-isopropoxy-6-methoxyquinoline-3-yl)methyloxy]-4-methoxyphenyl}methylmalonate hydrochloride]
Human PPARγ receptor
  Emax at 0.1 µM: 1.3%
  Emax at 1 µM: 2.1%
  Emax at 10 µM: 14.7%

## CCOC(=O)C(Cc1ccc(OCc2cnc3ccc(OC)cc3c2OC(C)C)cc1)OCC (stereo not drawn) [Example 1 (101), ethyl 2-ethoxy-3-{[4-(4-isopropoxy-6-methoxyquinoline-3-yl)methyloxy]phenyl}propanoate]
Human PPARα receptor
  Emax at 0.1 µM: 0.2%
  Emax at 1 µM: 0.9%
  Emax at 10 µM: 28.7%
Human PPARγ receptor
  Emax at 0.1 µM: 98.6%
  Emax at 1 µM: 127%
  Emax at 10 µM: 102%

## CCCCCCCCOc1c(COc2ccc(CC(OCC)C(=O)O)cc2)cnc2ccc(OC)cc12 (stereo not drawn) [Example 7 (63), 2-ethoxy-3-{[4-(4-octyloxy-6-methoxyquinoline-3-yl)methyloxy]phenyl}propanoic acid]
Human PPARα receptor
  Emax at 0.1 µM: 0.4%
  Emax at 1 µM: 4.5%
  Emax at 10 µM: 64.4%
Human PPARγ receptor
  Emax at 0.1 µM: 13.5%
  Emax at 1 µM: 63.3%
  Emax at 10 µM: 114%

## CCOC(Cc1ccc(OCc2cnc3cc(C)cc(C)c3c2OC(C)C)cc1)C(=O)O (stereo not drawn) [Example 5 (71), 2-ethoxy-3-{[4-(4-isopropoxy-5,7-dimethylquinoline-3-yl)methyloxy]phenyl}propanoic acid]
Human PPARα receptor
  Emax at 0.1 µM: 0.3%
  Emax at 1 µM: 0.5%
  Emax at 10 µM: 28.4%
Human PPARγ receptor
  Emax at 0.1 µM: 0.3%
  Emax at 1 µM: 0.4%
  Emax at 10 µM: 11.6%

## CCOC(Cc1ccc(OCc2cnc3c(F)cccc3c2OC(C)C)cc1)C(=O)O (stereo not drawn) [Example 15 (82), 2-ethoxy-3-{[4-(8-fluoro-4-isopropoxyquinoline-3-yl)methyloxy]phenyl}propanoic acid]
Human PPARα receptor
  Emax at 0.1 µM: 0.3%
  Emax at 1 µM: 0.3%
  Emax at 10 µM: 5%
Human PPARγ receptor
  Emax at 0.1 µM: 52.3%
  Emax at 1 µM: 133%
  Emax at 10 µM: 125%

## CCOC(Cc1ccc(OC)c(OCc2cnc3ccc(OC)cc3c2OC(C)C)c1)C(=O)O (stereo not drawn) [Example 21 (118), 2-ethoxy-3-{[3-(4-isopropoxy-6-methoxyquinoline-3-yl)methyloxy]-4-methoxyphenyl}propanoic acid]
Human PPARγ receptor
  Emax at 0.1 µM: 1.4%
  Emax at 1 µM: 1.9%
  Emax at 10 µM: 22.4%

## CCC(=O)C(Cc1ccc(OCc2cnc3ccc(OC)cc3c2OC(C)C)cc1)C(=O)OC (stereo not drawn) [Example 23 (137), methyl 2-{[4-(4-isopropoxy-6-methoxyquinoline-3-yl)methyloxy]phenylmethyl}-3-oxopentanoate hydrochloride]
Human PPARγ receptor
  Emax at 0.1 µM: 2.8%
  Emax at 1 µM: 30.5%
  Emax at 10 µM: 63.1%

## CNC(=O)/C(=C/c1ccc(OCc2cnc3ccc(OC)cc3c2OC(C)C)cc1)C(C)=O [Example 25 (144), 2-{[4-(4-isopropoxy-6-methoxyquinoline-3-yl)methyloxy]phenylmethylene}-3-oxobutanoic acid N-methylamide hydrochloride]
Human PPARγ receptor
  Emax at 0.1 µM: 0.7%
  Emax at 1 µM: 1.9%
  Emax at 10 µM: 6.2%

## COC(=O)C(Cc1ccc(OCc2cnc3ccc(OC)cc3c2OC(C)C)cc1)C(=O)OC [Example 22 (120), dimethyl{[4-(4-isopropoxy-6-methoxyquinoline-3-yl)methyloxy]phenyl}methylmalonate hydrochloride]
Human PPARγ receptor
  Emax at 0.1 µM: 3.5%
  Emax at 1 µM: 62.3%
  Emax at 10 µM: 108%

## CCOC(=O)C(Cc1cccc(OCc2cnc3ccc(OC)cc3c2OC(C)C)c1)C(=O)OCC [Example 27 (128), diethyl{[3-(4-isopropoxy-6-methoxyquinoline-3-yl)methyloxy]phenyl}methylmalonate hydrochloride]
Human PPARγ receptor
  Emax at 0.1 µM: 1.2%
  Emax at 1 µM: 2.1%
  Emax at 10 µM: 42.5%
